Source: patent US10780090B2, “Heteroaryl compounds useful as inhibitors of SUMO activating enzyme” (Millennium Pharmaceuticals, Inc., priority 2014, dated 2020)
Read-outs that look alike come from different tables or passages of the source.

Biological target: recombinant human SAE enzyme (Homo sapiens (Human), UniProt Q9UBT2)
Test: SAE HTRF enzyme assay
Type: biochemical
Details: for inhibition at 0.111 µM: read-out: Percent Inhibition
Procedure, shortened: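 Sumoylation of Ubc9-GST by SAE was followed at low ATP (0.5 μM), pH 7.5, 24° C. for 105 min. Product was detected by HTRF with antibody pairs against Flag and GST tags.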

[1] = SAE inhibition at compound concentration 0.111 μM
[2] = SAE inhibition, class symbols, legend in nM

recombinant human SAE enzyme, sequence (Q9UBT2 whole entry): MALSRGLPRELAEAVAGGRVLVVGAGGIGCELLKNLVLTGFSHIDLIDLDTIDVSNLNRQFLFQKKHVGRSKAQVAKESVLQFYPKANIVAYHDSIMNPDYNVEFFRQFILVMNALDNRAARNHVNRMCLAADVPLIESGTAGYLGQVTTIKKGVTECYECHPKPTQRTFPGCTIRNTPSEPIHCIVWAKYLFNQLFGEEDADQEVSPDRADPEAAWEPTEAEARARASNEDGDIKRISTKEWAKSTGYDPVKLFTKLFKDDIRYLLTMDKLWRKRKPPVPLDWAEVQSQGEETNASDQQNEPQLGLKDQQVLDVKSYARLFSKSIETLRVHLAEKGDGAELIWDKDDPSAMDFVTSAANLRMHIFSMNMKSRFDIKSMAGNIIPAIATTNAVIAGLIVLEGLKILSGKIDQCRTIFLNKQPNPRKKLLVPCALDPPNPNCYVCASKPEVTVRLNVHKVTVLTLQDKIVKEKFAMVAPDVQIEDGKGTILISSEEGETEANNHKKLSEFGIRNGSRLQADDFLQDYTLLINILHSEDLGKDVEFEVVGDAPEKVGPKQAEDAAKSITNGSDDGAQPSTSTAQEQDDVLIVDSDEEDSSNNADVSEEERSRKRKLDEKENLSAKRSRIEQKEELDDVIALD
recombinant human SAE enzyme, sequence (Q9UBE0 whole entry partner): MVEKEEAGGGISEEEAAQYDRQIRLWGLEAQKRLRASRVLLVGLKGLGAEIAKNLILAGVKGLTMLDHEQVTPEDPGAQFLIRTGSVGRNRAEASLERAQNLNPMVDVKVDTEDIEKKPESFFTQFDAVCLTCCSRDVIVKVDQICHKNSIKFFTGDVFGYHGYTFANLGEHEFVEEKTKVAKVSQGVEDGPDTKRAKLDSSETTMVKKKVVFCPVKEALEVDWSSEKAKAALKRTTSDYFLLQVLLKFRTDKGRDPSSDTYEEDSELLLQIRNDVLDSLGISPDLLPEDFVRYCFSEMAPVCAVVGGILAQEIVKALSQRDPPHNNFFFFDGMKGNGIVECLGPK

SMILES | Percent Inhibition (Concentration 0.111 μM) | IC50 (class symbols A/B/C) [nM] | Percent Inhibition [1] [%] | IC50 [2] [nM] | other results
Cc1sc(C(=O)c2cncnc2N[C@@H]2C[C@H](COS(N)(=O)=O)[C@@H](O)[C@@H]2F)cc1[C@H]1OCCc2ccc(Cl)cc21 (single isomer, unassigned) [I-264a, [(1R,2R,3R,4R)-4-{[5-({4-[(1S)-7-chloro-3,4-dihydro-1H-isochromen-1-yl]-5-methyl-2-thienyl}carbonyl)pyrimidin-4-yl]amino}-3-fluoro-2-hydroxycyclopentyl]methyl sulfamate or [(1R,2R,3R,4R)-4-{[5-({4-[(1R)-7-chloro-3,4-dihydro-1H-isochromen-1-yl]-5-methyl-2-thienyl}carbonyl)pyrimidin-4-yl]amino}-3-fluoro-2-hydroxycyclopentyl]methyl sulfamate] | 33 | 100 to 1000 | – | – | –
CN1Cc2ccc(Cl)cc2[C@@H]1c1cc(C(=O)c2cncnc2N[C@@H]2C[C@H](COS(N)(=O)=O)[C@@H](O)C2)sc1Cl (single isomer, unassigned) [I-284a, [(1R,2S,4R)-4-{[5-({5-chloro-4-[(1R)-6-chloro-2-methyl-2,3-dihydro-1H-isoindol-1-yl]-2-thienyl}carbonyl)pyrimidin-4-yl]amino}-2-hydroxycyclopentyl]methyl sulfamate or [(1R,2S,4R)-4-{[5-({5-chloro-4-[(1S)-6-chloro-2-methyl-2,3-dihydro-1H-isoindol-1-yl]-2-thienyl}carbonyl)pyrimidin-4-yl]amino}-2-hydroxycyclopentyl]methyl sulfamate] | – | – | 49 | 100 to 1000 | –
Cc1sc(C(=O)c2cncnc2N[C@@H]2C[C@H](COS(N)(=O)=O)[C@@H](O)C2)cc1[C@@H]1OCCc2ccc(C(F)(F)F)cc21 (single isomer, unassigned) [I-258b, [(1R,2S,4R)-2-hydroxy-4-{[5-({5-methyl-4-[(1R)-7-(trifluoromethyl)-3,4-dihydro-1H-isochromen-1-yl]-2-thienyl}carbonyl)pyrimidin-4-yl]amino}cyclopentyl]methyl sulfamate or [(1R,2S,4R)-2-hydroxy-4-{[5-({5-methyl-4-[(1S)-7-(trifluoromethyl)-3,4-dihydro-1H-isochromen-1-yl]-2-thienyl}carbonyl)pyrimidin-4-yl]amino}cyclopentyl]methyl sulfamate] | 72 | 10 to 100 | – | – | –
C=C(c1cccc(Br)c1)c1csc(C(=O)c2cncnc2N[C@@H]2C[C@H](COS(N)(=O)=O)[C@@H](O)C2)c1 [I-164, [(1R,2S,4R)-4-{[5-({4-[1-(3-Bromophenyl)vinyl]-2-thienyl}carbonyl)pyrimidin-4-yl]amino)-2-hydroxycyclopentyl]methyl sulfamate] | – | 10 to 100 | – | – | inhibition at 0.111 µM (Concentration 0.111 μM): 92%
NS(=O)(=O)OCC1CC(Nc2ncncc2C(=O)c2cc(C(O)(c3cccc(Cl)c3)C3CC3)cs2)CC1O (mixture of isomers) [I-50, [(1R,2S,4R)-4-{[5-({4-[(S)-(3-chlorophenyl)(cyclopropyl)hydroxymethyl]-2-thienyl}carbonyl)pyrimidin-4-yl]amino}-2-hydroxycyclopentyl]methyl sulfamate and [(1R,2S,4R)-4-{[5-({4-[(R)-(3-chlorophenyl)(cyclopropyl)hydroxymethyl]-2-thienyl}carbonyl)pyrimidin-4-yl]amino}-2-hydroxycyclopentyl]methyl sulfamate] | 99 | < 10 | – | – | –
NS(=O)(=O)OC[C@H]1C[C@@H](Nc2ncncc2C(=O)c2cc([C@@H]3NCc4ccc(Cl)cc43)c(Cl)s2)C[C@@H]1O (single isomer, unassigned) [I-262b, [(1R,2S,4R)-4-{[5-({5-chloro-4-[(1R)-6-chloro-2,3-dihydro-1H-isoindol-1-yl]-2-thienyl}carbonyl)pyrimidin-4-yl]amino}-2-hydroxycyclopentyl]methyl sulfamate or [(1R,2S,4R)-4-{[5-({5-chloro-4-[(1S)-6-chloro-2,3-dihydro-1H-isoindol-1-yl]-2-thienyl}carbonyl)pyrimidin-4-yl]amino}-2-hydroxycyclopentyl]methyl sulfamate] | 98 | < 10 | – | – | –
COc1ccc2c(n1)[C@H](c1cc(C(=O)c3cncnc3N[C@@H]3C[C@H](COS(N)(=O)=O)[C@@H](O)C3)sc1C)OCC2 (single isomer, unassigned) [I-339a, [(1R,2S,4R)-2-hydroxy-4-{[5-({4-[(8S)-2-methoxy-5,8-dihydro-6H-pyrano[3,4-b]pyridin-8-yl]-5-methyl-2-thienyl}carbonyl)pyrimidin-4-yl]amino}cyclopentyl]methyl sulfamate or [(1R,2S,4R)-2-hydroxy-4-{[5-({4-[(8R)-2-methoxy-5,8-dihydro-6H-pyrano[3,4-b]pyridin-8-yl]-5-methyl-2-thienyl}carbonyl)pyrimidin-4-yl]amino}cyclopentyl]methyl sulfamate] | – | – | 99 | < 10 | –
CC(C)Oc1ccccc1OCc1csc(C(=O)c2cncnc2N[C@@H]2C[C@H](COS(N)(=O)=O)[C@@H](O)C2)c1 [I-201, [(1R,2S,4R)-2-hydroxy-4-{[5-({4-[(2-isopropoxyphenoxy)methyl]-2-thienyl}carbonyl)pyrimidin-4-yl]amino}cyclopentyl]methyl sulfamate] | – | 10 to 100 | – | – | inhibition at 0.111 µM (Concentration 0.111 μM): 60%
Cc1sc(C(=O)c2cncnc2N[C@@H]2C[C@H](COS(N)(=O)=O)[C@@H](O)C2)cc1Cc1cccc(Br)c1 [I-52, {(1R,2S,4R)-4-[(5-{[4-(3-bromobenzyl)-5-methyl-2-thienyl]carbonyl}pyrimidin-4-yl)amino]-2-hydroxycyclopentyl}methyl sulfamate] | – | < 10 | – | – | inhibition at 0.111 µM (Concentration 0.111 μM): 99%
NS(=O)(=O)OC[C@H]1C[C@@H](Nc2ncncc2C(=O)c2cc(Cc3ccc(Cl)o3)cs2)C[C@@H]1O [I-66, [(1R,2S,4R)-4-{[5-({4-[(5-chloro-2-furyl)methyl]-2-thienyl}carbonyl)pyrimidin-4-yl]amino}-2-hydroxycyclopentyl]methyl sulfamate] | – | < 10 | – | – | inhibition at 0.111 µM (Concentration 0.111 μM): 98%
COc1ccc2c(c1)[C@H](c1cc(C(=O)c3cncnc3N[C@@H]3C[C@H](COS(N)(=O)=O)[C@@H](O)C3)sc1C)OCC2 (mixture of isomers) [I-341, [(1R,2S,4R)-2-hydroxy-4-{[5-({4-[(1R)-7-methoxy-3,4-dihydro-1H-isochromen-1-yl]-5-methyl-2-thienyl}carbonyl)pyrimidin-4-yl]amino}cyclopentyl]methyl sulfamate and [(1R,2S,4R)-2-hydroxy-4-{[5-({4-[(1S)-7-methoxy-3,4-dihydro-1H-isochromen-1-yl]-5-methyl-2-thienyl}carbonyl)pyrimidin-4-yl]amino}cyclopentyl]methyl sulfamate] | – | – | 10 | 100 to 1000 | –
Cc1ccc2c(n1)[C@H](c1cc(C(=O)c3cncnc3N[C@@H]3C[C@H](COS(N)(=O)=O)[C@@H](O)C3)sc1C)OCC2 (mixture of isomers) [I-291, [(1R,2S,4R)-2-hydroxy-4-{[5-({5-methyl-4-[(8S)-2-methyl-5,8-dihydro-6H-pyrano[3,4-b]pyridin-8-yl]-2-thienyl}carbonyl)pyrimidin-4-yl]amino}cyclopentyl]methyl sulfamate and [(1R,2S,4R)-2-hydroxy-4-{[5-({5-methyl-4-[(8R)-2-methyl-5,8-dihydro-6H-pyrano[3,4-b]pyridin-8-yl]-2-thienyl}carbonyl)pyrimidin-4-yl]amino}cyclopentyl]methyl sulfamate] | – | – | 99 | < 10 | –
Cc1sc(C(=O)c2cncnc2N[C@@H]2C[C@H](COS(N)(=O)=O)[C@@H](O)C2)cc1[C@@H]1SCc2ccc(Cl)cc21 (mixture of isomers) [I-359a, [(1RS,2SR,4RS)-4-[[5-[4-[(R)-6-chloro-1,3-dihydro-2-benzothiophene-1-yl]-5-methyl-thiophene-2-carbonyl]pyrimidin-4-yl]amino]-2-hydroxy-cyclopentyl]methyl sulfamate] | – | – | – | 10 to 100 | inhibition at 0.111 µM [1]: 92%
CC(N)(c1cccc(Cl)c1)c1csc(C(=O)c2cncnc2N[C@@H]2C[C@H](COS(N)(=O)=O)[C@@H](O)[C@H]2O)c1 (single isomer, unassigned) [I-8b, [(1R,2R,3S,4R)-4-{[5-({4-[(1S)-1-amino-1-(3-chlorophenyl)ethyl]-2-thienyl}carbonyl)pyrimidin-4-yl]amino}-2,3-dihydroxycyclopentyl]methyl sulfamate or [(1R,2R,3S,4R)-4-{[5-({4-[(1R)-1-amino-1-(3-chlorophenyl)ethyl]-2-thienyl}carbonyl)pyrimidin-4-yl]amino}-2,3-dihydroxycyclopentyl]methyl sulfamate] | 99 | < 10 | – | – | –
NS(=O)(=O)OC[C@H]1C[C@@H](Nc2ncncc2C(=O)c2cc([C@@H]3CCc4ccc(Cl)cc43)cs2)C[C@@H]1O (mixture of isomers) [I-349, [(1R,2S,4R)-4-{[5-({4-[(1R)-6-chloro-2,3-dihydro-1H-inden-1-yl]-2-thienyl}carbonyl)pyrimidin-4-yl]amino}-2-hydroxycyclopentyl]methyl sulfamate and [(1R,2S,4R)-4-{[5-({4-[(1S)-6-chloro-2,3-dihydro-1H-inden-1-yl]-2-thienyl}carbonyl)pyrimidin-4-yl]amino}-2-hydroxycyclopentyl]methyl sulfamate] | – | – | 42 | 100 to 1000 | –
